Source: PMC10952433, “A Chemoenzymatic Approach To Produce a Cyclic Analogue of the Analgesic Drug MVIIA (Ziconotide)” (Angewandte Chemie (International Ed. in English), 2023)

Legend:
[1] = target: T1, CaV2.2 (Homo sapiens, UniProt Q00975); assay: cell-based
[2] = target: T1, CaV2.2
[3] = in vitro; conditions: simulated intestinal fluid, pH 6.8

T1 sequence (Q00975 whole entry, looked up): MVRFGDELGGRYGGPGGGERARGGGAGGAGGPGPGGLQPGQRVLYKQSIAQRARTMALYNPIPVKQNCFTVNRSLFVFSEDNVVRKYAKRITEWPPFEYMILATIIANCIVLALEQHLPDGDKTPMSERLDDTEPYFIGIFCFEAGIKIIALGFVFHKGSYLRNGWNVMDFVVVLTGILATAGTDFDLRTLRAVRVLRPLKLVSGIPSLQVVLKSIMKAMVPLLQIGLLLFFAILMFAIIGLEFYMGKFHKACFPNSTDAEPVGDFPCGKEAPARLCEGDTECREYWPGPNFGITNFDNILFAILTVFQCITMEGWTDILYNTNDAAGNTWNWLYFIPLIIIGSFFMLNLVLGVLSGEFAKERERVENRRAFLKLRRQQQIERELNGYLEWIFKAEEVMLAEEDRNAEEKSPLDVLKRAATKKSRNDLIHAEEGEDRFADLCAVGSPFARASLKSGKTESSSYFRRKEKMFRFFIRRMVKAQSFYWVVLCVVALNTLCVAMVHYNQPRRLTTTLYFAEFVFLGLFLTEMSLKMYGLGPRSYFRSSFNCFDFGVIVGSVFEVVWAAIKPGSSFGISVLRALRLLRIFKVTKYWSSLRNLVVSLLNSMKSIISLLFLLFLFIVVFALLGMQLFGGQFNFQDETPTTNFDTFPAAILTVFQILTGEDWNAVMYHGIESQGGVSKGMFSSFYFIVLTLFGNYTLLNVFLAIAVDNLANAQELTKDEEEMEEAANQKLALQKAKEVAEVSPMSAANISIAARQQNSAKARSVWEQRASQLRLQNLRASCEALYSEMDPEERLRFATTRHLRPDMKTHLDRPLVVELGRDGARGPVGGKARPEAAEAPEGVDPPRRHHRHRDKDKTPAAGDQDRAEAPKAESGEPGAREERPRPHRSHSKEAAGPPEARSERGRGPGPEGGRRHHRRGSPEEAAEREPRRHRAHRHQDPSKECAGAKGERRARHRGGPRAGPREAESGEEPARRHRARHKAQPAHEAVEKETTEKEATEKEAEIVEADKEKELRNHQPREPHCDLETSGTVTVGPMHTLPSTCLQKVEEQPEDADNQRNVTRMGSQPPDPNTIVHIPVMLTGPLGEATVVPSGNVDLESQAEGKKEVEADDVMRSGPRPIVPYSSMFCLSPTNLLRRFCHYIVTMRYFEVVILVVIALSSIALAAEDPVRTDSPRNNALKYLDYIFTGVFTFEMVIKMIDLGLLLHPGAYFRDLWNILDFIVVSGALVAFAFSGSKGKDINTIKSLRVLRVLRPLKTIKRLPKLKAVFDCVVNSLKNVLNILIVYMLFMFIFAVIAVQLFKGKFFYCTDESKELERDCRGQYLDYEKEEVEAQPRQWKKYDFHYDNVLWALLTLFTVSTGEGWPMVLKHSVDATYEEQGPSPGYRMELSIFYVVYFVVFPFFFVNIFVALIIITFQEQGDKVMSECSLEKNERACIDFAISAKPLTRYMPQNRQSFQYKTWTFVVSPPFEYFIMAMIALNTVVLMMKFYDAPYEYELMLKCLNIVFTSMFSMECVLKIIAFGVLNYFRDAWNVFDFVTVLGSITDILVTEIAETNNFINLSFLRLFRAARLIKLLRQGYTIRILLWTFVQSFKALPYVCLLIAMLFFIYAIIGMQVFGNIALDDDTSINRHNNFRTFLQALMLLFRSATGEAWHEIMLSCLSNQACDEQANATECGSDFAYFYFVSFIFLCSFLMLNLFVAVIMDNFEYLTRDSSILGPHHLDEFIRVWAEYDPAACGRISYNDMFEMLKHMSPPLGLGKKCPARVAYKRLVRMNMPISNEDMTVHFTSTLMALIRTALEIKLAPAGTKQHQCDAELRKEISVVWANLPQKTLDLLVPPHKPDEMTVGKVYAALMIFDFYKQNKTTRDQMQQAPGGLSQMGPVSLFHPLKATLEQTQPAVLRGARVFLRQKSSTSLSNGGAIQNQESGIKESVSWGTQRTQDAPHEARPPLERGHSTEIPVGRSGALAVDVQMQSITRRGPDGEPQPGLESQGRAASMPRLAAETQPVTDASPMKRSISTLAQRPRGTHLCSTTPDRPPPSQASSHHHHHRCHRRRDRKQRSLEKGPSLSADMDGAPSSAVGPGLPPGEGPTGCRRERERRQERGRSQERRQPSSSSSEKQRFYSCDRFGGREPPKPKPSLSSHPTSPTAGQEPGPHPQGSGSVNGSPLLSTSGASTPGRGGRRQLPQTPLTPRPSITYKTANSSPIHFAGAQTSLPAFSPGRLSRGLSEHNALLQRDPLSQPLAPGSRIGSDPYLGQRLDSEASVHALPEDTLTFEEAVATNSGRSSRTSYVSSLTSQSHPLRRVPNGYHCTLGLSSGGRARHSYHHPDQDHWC

CCCC[C@@H]1NC(=O)[C@H](CC(C)C)NC(=O)[C@H](CCCNC(=N)N)NC(=O)[C@H](CO)NC(=O)[C@@H]2CSSC[C@@H]3NC(=O)[C@H](CO)NC(=O)CNC(=O)[C@H]([C@@H](C)O)NC(=O)[C@@H]4CSSC[C@H](NC(=O)[C@H](C)NC(=O)[C@H](C)NC(=O)CNC(=O)CNC(=O)[C@H](CC(N)=O)NC(=O)CNC(=O)CNC(=O)[C@H](C)NC(=O)[C@H](C)NC(=O)[C@H](CSSC[C@H](NC(=O)[C@H](CC(=O)O)NC(=O)[C@H](Cc5ccc(O)cc5)NC1=O)C(=O)N4)NC(=O)[C@H](CCCCN)NC(=O)CNC(=O)[C@H](CO)NC(=O)[C@H](CCCNC(=N)N)NC3=O)C(=O)N[C@@H](CCCCN)C(=O)NCC(=O)N[C@@H](CCCCN)C(=O)NCC(=O)N[C@@H](C)C(=O)N[C@@H](CCCCN)C(=O)N2 [cM-9]
EC50 [1]: 0.307 µM
IC50 [1]: 0.3066 ± 0.0015 µM
LogEC50 [2]: -6.4

CCCC[C@@H]1NC(=O)[C@H](CC(C)C)NC(=O)[C@H](CCCNC(=N)N)NC(=O)[C@H](CO)NC(=O)[C@@H]2CSSC[C@@H]3NC(=O)[C@H](CO)NC(=O)CNC(=O)[C@H]([C@@H](C)O)NC(=O)[C@@H]4CSSC[C@H](NC(=O)[C@H](C)NC(=O)[C@H](C)NC(=O)CNC(=O)CNC(=O)[C@H](CC(N)=O)NC(=O)CNC(=O)[C@H](C)NC(=O)[C@H](CSSC[C@H](NC(=O)[C@H](CC(=O)O)NC(=O)[C@H](Cc5ccc(O)cc5)NC1=O)C(=O)N4)NC(=O)[C@H](CCCCN)NC(=O)CNC(=O)[C@H](CO)NC(=O)[C@H](CCCNC(=N)N)NC3=O)C(=O)N[C@@H](CCCCN)C(=O)NCC(=O)N[C@@H](CCCCN)C(=O)NCC(=O)N[C@@H](C)C(=O)N[C@@H](CCCCN)C(=O)N2 [cM-7]
half-life [3]: 43 min
remaining at 1 h [3]: ~38%
EC50 [1]: 0.0135 µM
IC50 [1]: 0.0135 ± 0.0012 µM
LogEC50 [2]: -7.8

CCCC[C@@H]1NC(=O)[C@H](CC(C)C)NC(=O)[C@H](CCCNC(=N)N)NC(=O)[C@H](CO)NC(=O)[C@@H]2CSSC[C@@H]3NC(=O)[C@H](CO)NC(=O)CNC(=O)[C@H]([C@@H](C)O)NC(=O)[C@@H]4CSSC[C@H](NC(=O)[C@H](C)NC(=O)CNC(=O)CNC(=O)[C@H](CC(N)=O)NC(=O)CNC(=O)[C@H](C)NC(=O)[C@H](CSSC[C@H](NC(=O)[C@H](CC(=O)O)NC(=O)[C@H](Cc5ccc(O)cc5)NC1=O)C(=O)N4)NC(=O)[C@H](CCCCN)NC(=O)CNC(=O)[C@H](CO)NC(=O)[C@H](CCCNC(=N)N)NC3=O)C(=O)N[C@@H](CCCCN)C(=O)NCC(=O)N[C@@H](CCCCN)C(=O)NCC(=O)N[C@@H](C)C(=O)N[C@@H](CCCCN)C(=O)N2 [cM-6]
EC50 [1]: 0.0432 µM
IC50 [1]: 0.0432 ± 0.0014 µM
LogEC50 [2]: -7.4

CSCC[C@@H]1NC(=O)[C@H](CC(C)C)NC(=O)[C@H](CCCNC(=N)N)NC(=O)[C@H](CO)NC(=O)[C@@H]2CSSC[C@@H]3NC(=O)[C@H](CO)NC(=O)CNC(=O)[C@H]([C@@H](C)O)NC(=O)[C@H](CSSC[C@H](N)C(=O)N[C@@H](CCCCN)C(=O)NCC(=O)N[C@@H](CCCCN)C(=O)NCC(=O)N[C@@H](C)C(=O)N[C@@H](CCCCN)C(=O)N2)NC(=O)[C@H](CSSC[C@@H](C(=O)O)NC(=O)[C@H](CCCCN)NC(=O)CNC(=O)[C@H](CO)NC(=O)[C@H](CCCNC(=N)N)NC3=O)NC(=O)[C@H](CC(=O)O)NC(=O)[C@H](Cc2ccc(O)cc2)NC1=O [M-3]
EC50 [1]: 0.0017 µM
IC50 [1]: 0.0017 ± 0.0012 µM
LogEC50 [2]: -8.8

CCCC[C@@H]1NC(=O)[C@H](CC(C)C)NC(=O)[C@H](CCCNC(=N)N)NC(=O)[C@H](CO)NC(=O)[C@@H]2CSSC[C@@H]3NC(=O)[C@H](CO)NC(=O)CNC(=O)[C@H]([C@@H](C)O)NC(=O)[C@@H]4CSSC[C@H](NC(=O)[C@H](C)NC(=O)[C@H](C)NC(=O)CNC(=O)CNC(=O)[C@H](CC(N)=O)NC(=O)CNC(=O)CNC(=O)[C@H](C)NC(=O)[C@H](CSSC[C@H](NC(=O)[C@H](CC(=O)O)NC(=O)[C@H](Cc5ccc(O)cc5)NC1=O)C(=O)N4)NC(=O)[C@H](CCCCN)NC(=O)CNC(=O)[C@H](CO)NC(=O)[C@H](CCCNC(=N)N)NC3=O)C(=O)N[C@@H](CCCCN)C(=O)NCC(=O)N[C@@H](CCCCN)C(=O)NCC(=O)N[C@@H](C)C(=O)N[C@@H](CCCCN)C(=O)N2 [cM-8]
EC50 [1]: 0.0218 µM
IC50 [1]: 0.0218 ± 0.0012 µM
LogEC50 [2]: -7.6

CCCC[C@@H]1NC(=O)[C@H](CC(C)C)NC(=O)[C@H](CCCNC(=N)N)NC(=O)[C@H](CO)NC(=O)[C@@H]2CSSC[C@@H]3NC(=O)[C@H](CO)NC(=O)CNC(=O)[C@H]([C@@H](C)O)NC(=O)[C@H](CSSC[C@H](N)C(=O)N[C@@H](CCCCN)C(=O)NCC(=O)N[C@@H](CCCCN)C(=O)NCC(=O)N[C@@H](C)C(=O)N[C@@H](CCCCN)C(=O)N2)NC(=O)[C@H](CSSC[C@@H](C(N)=O)NC(=O)[C@H](CCCCN)NC(=O)CNC(=O)[C@H](CO)NC(=O)[C@H](CCCNC(=N)N)NC3=O)NC(=O)[C@H](CC(=O)O)NC(=O)[C@H](Cc2ccc(O)cc2)NC1=O [M-2]
EC50 [1]: 0.0001 µM
IC50 [1]: 0.0001 µM
LogEC50 [2]: -9.9
